The results in this text go back to PubChem BioAssay (NCI).

Assay in all cases: DTP human tumour cell line panel, 48 h
Test [1] has as its system ACHN renal.
In test [2] the test system is HCC-2998 colon.
Test [3] concerns HOP-62 NSCLC.
Test [4] has as its system HOP-92 NSCLC.
In test [5] the test system is M14 melanoma.
The subject of test [6] is MOLT-4 leukemia.
Test [7] deals with SK-MEL-28 melanoma.
Test [8] has as its system SK-MEL-5 melanoma.
The subject of test [9] is OVCAR-4 ovarian.
The test system of test [10] is SK-OV-3 ovarian.

The TGI is the concentration giving total growth inhibition. The GI50 is the concentration giving 50% growth inhibition.

Each structure is given as a SMILES string.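 Method: 48-hour compound exposure of cells in 96-well plates, five concentrations, linear interpolation of endpoints. GI50: concentration for 50% inhibition of growth. TGI: concentration producing complete growth inhibition.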

Take `O=C(c1ccccc1)C1C(C(=O)c2ccccc2)C(c2ccccc2)N(c2ccccc2)C1c1ccccc1` (stereo not given): the TGI in [1], in test [2], in [3], in [4], in test [5] and in test [6] was above 100 µM each time. Further, the TGI in [7] and in [8] was above 100 µM throughout.
Regarding `CO[C@H](C(=O)O)[C@@H]1Cc2cc3cc(OC4CC(OC5CC(O)C(O)C(C)O5)C(O)C(C)O4)c(C)c(O)c3c(O)c2C(=O)[C@H]1OC1CC(OC2CC(OC3CC(C)(O)C(O)C(C)O3)C(O)C(C)O2)C(O)C(C)O1` (stereo not given in full), the GI50 in test [3] was 0.211 µM; in test [4], 0.0736 µM; in test [5], 0.443 µM; in test [6], 0.272 µM; in [9], 0.607 µM; in [7] it was 0.191 µM. Also, the results for the GI50 in test [8] and in [10] were 0.159 µM and 0.445 µM, respectively. Moreover, the TGI is above 32.5 µM in test [3]; 22.6 µM in [4]; 3.59 µM in test [5]; 6.41 µM in test [6]; above 32.5 µM in test [9]; 1.99 µM in [7]. Also, the TGI in test [8] is 0.868 µM; in [10] it was above 32.5 µM.
Turning to `NCP(=O)(O)OCC(=O)O`, the TGI in test [1], in test [3], in [4], in test [5], in test [6] and in test [9] was above 100 µM throughout. Besides, the TGI in test [7], in [8] and in [10] was above 100 µM each time.
In the case of `CCOC(=O)/C(C#N)=C/Nc1ccc(-c2nc3ccccc3[nH]2)cc1`, the GI50 in [1] is 25.4 µM; in test [3], 31.1 µM; in [4], 42.1 µM; in test [5], 62.3 µM; in test [6] it was 35.1 µM; in test [9], 31.4 µM. Moreover, the GI50 in [7] is 22.5 µM; in [8], 28.5 µM; in [10] it was 25.6 µM. The TGI in test [1] was 78 µM; in test [3] it was 74.7 µM; in test [4] it was above 100 µM; in [5], above 100 µM; in test [6] it was above 100 µM; in [9] it was above 100 µM. The TGI in test [7] was 54.1 µM; in test [8], above 100 µM; in test [10], 99.3 µM.
In the case of `Cn1cc(NC(=O)c2cc(NC(=O)CCCCCCC(=O)Nc3cc(C(=O)Nc4cc(C(=O)NCCC(=N)N)n(C)c4)n(C)c3)cn2C)cc1C(=O)NCCC(=N)N`, the TGI was 54 µM in test [1]; 23.2 µM in [2]; above 100 µM in test [4]; 33.9 µM in test [5]; above 100 µM in test [9]; 16.9 µM in test [7]. Further, the TGI in test [8] was 3.89 µM; in [10] it was above 100 µM.
On to `O=C(CC(=O)c1ccccc1)c1ccccc1`, for which the GI50 was 11.5 µM in test [1]; 7.72 µM in [3]; 15.8 µM in test [4]; 14.1 µM in [5]; 17.3 µM in test [6]; 27.9 µM in [9]. Moreover, the GI50 in [7] was 31 µM; in [8], 11.5 µM; in test [10], 22.2 µM. For the same molecule, the TGI in test [1] is 34.5 µM; in test [3], 39.6 µM; in [4] it was 51.3 µM; in test [5], 44.7 µM; in test [6] it was above 100 µM; in test [9], above 100 µM. Further, the TGI was above 100 µM in [7], 32.4 µM in test [8] and above 100 µM in [10].
As to `CN(C)CC1CCCC/C1=N/OC(=O)c1ccc(Cl)c(Cl)c1` (stereo not given), the TGI in [1], in test [2], in [3], in [4], in test [5] and in [9] was above 100 µM throughout. The TGI in test [7], in test [8] and in [10] was above 100 µM throughout.
As to `Cc1nnc(-c2ccc(-c3nc4ccccc4o3)cc2)o1`, the GI50 in test [1] was above 100 µM; in test [2], 78.8 µM; in test [3], 42.8 µM; in [4] it was above 100 µM; in test [5] it was above 100 µM; in test [7], above 100 µM. The GI50 in [8] was 21 µM; in [10], 29.7 µM. Moreover, the TGI in test [1], in test [2], in test [3], in test [4], in [5] and in test [7] was above 100 µM in each case. In addition, the TGI in [8] was found to be 65.3 µM; in test [10] it was 77.7 µM.
In the case of `CCOC(=S)SCN1C(=O)c2ccccc2S1(=O)=O`, the GI50 is 16.8 µM in [1]; 16.2 µM in [2]; 24.6 µM in test [3]; 16.4 µM in test [5]; 32.7 µM in [6]; 1.67 µM in test [9]. Besides, the GI50 in [7] is 3.42 µM; in test [8], 11.4 µM; in [10], 32.1 µM. The TGI in [1] is 30.5 µM; in test [2], 29.8 µM; in test [3] it was 65.8 µM; in [5], 33.5 µM; in test [6], above 100 µM; in [9], 3.87 µM. Besides, the total growth inhibition concentration (TGI) in test [7] is 15 µM; in [8], 24.4 µM; in [10] it was above 100 µM.
In the case of `Cc1cc(O)cc2c1c(=O)c1ccccc1n2C`, the TGI was above 100 µM in test [1]; 93.6 µM in test [4]; above 100 µM in test [5]; above 100 µM in test [6]; above 100 µM in test [9]; above 100 µM in test [8]. This molecule registered a TGI in [10] above 100 µM.
Consider `OCC(O)C(OC1OC(CO)C(O)C(O)C1O)c1nn(-c2ccccc2)c2nc3cc(Cl)ccc3nc12` (stereo not given), for which the TGI in test [1], in test [2], in [3], in test [5], in [6] and in test [9] was above 100 µM in each case. For the same molecule, the TGI in test [7] and in test [10] was above 100 µM in each case.
